{"source": "the supplement of paper PMC10307832", "experiment_in_all_cases": "relative viability (nuclei count vs DMSO), 5 days (fraction); higher = more cells survive", "key": {"[1]": {"test_system": "CAL-12T", "procedure,_shortened": "(§1)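 Relative viability equals treated-well nuclei counts divided by vehicle-well nuclei counts. Counts came from 4× images of lung cancer cell lines grown in 1536-well plates for 5 days after pin-tool dosing on the day after seeding. Dosing used one drug alone or a fixed anchor-drug dose plus five library-drug doses (not always all listed) in √10 steps, and values are medians of duplicate plates.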"}, "[2]": {"test_system": "EKVX", "procedure,_shortened": "as §1"}, "[3]": {"test_system": "H3255", "procedure,_shortened": "as §1"}, "[4]": {"test_system": "HCC-15", "procedure,_shortened": "as §1"}, "[5]": {"test_system": "HCC-827", "procedure,_shortened": "as §1"}, "[6]": {"test_system": "LCLC-97TM1", "procedure,_shortened": "as §1"}, "[7]": {"test_system": "LK-2", "procedure,_shortened": "as §1"}, "[8]": {"test_system": "NCI-H1355", "procedure,_shortened": "as §1"}, "[9]": {"test_system": "NCI-H1650", "procedure,_shortened": "as §1"}, "[10]": {"test_system": "NCI-H1734", "procedure,_shortened": "as §1"}, "[11]": {"test_system": "NCI-H1755", "procedure,_shortened": "as §1"}, "[12]": {"test_system": "NCI-H1975", "procedure,_shortened": "as §1"}, "[13]": {"test_system": "NCI-H2228", "procedure,_shortened": "as §1"}, "[14]": {"test_system": "NCI-H2342", "procedure,_shortened": "as §1"}, "[15]": {"test_system": "NCI-H2405", "procedure,_shortened": "as §1"}, "[16]": {"test_system": "NCI-H322M", "procedure,_shortened": "as §1"}, "[17]": {"test_system": "NCI-H520", "procedure,_shortened": "as §1"}, "[18]": {"test_system": "NCI-H661", "procedure,_shortened": "as §1"}, "[19]": {"test_system": "PC-14", "procedure,_shortened": "as §1"}, "[20]": {"test_system": "PC-3 [JPC-3]", "procedure,_shortened": "as §1"}, "[21]": {"test_system": "RERF-LC-KJ", "procedure,_shortened": "as §1"}}}
{"smiles": "Cc1sc2c(c1C)C(c1ccc(Cl)cc1)=N[C@@H](CC(=O)OC(C)(C)C)c1nnc(C)n1-2", "note": "[JQ1] + CC(=O)Nc1cccc(-n2c(=O)n(C3CC3)c(=O)c3c(Nc4ccc(I)cc4F)n(C)c(=O)c(C)c32)c1 [Trametinib] (partner 0.02 µM)", "values": [{"measurement": "relative viability", "setting": "[1]; first compound 0.04 µM", "result": 0.354}, {"measurement": "relative viability", "setting": "[1]; first compound 0.1265 µM", "result": 0.29}, {"measurement": "relative viability", "setting": "[1]; first compound 0.4 µM", "result": 0.207}, {"measurement": "relative viability", "setting": "[1]; first compound 1.265 µM", "result": 0.193}, {"measurement": "relative viability", "setting": "[1]; first compound 4 µM", "result": 0.208}, {"measurement": "relative viability", "setting": "[2]; first compound 0.04 µM", "result": 0.286}, {"measurement": "relative viability", "setting": "[2]; first compound 0.1265 µM", "result": 0.38}, {"measurement": "relative viability", "setting": "[2]; first compound 0.4 µM", "result": 0.366}, {"measurement": "relative viability", "setting": "[2]; first compound 1.265 µM", "result": 0.432}, {"measurement": "relative viability", "setting": "[2]; first compound 4 µM", "result": 0.271}, {"measurement": "relative viability", "setting": "[3]; first compound 0.04 µM", "result": 0.58}, {"measurement": "relative viability", "setting": "[3]; first compound 0.4 µM", "result": 0.452}, {"measurement": "relative viability", "setting": "[3]; first compound 1.265 µM", "result": 0.345}, {"measurement": "relative viability", "setting": "[3]; first compound 4 µM", "result": 0.322}, {"measurement": "relative viability", "setting": "[4]; first compound 0.04 µM", "result": 0.376}, {"measurement": "relative viability", "setting": "[4]; first compound 0.4 µM", "result": 0.338}, {"measurement": "relative viability", "setting": "[4]; first compound 1.265 µM", "result": 0.31}, {"measurement": "relative viability", "setting": "[4]; first compound 4 µM", "result": 0.28}, {"measurement": "relative viability", "setting": "[5]; first compound 0.04 µM", "result": 0.562}, {"measurement": "relative viability", "setting": "[5]; first compound 0.1265 µM", "result": 0.519}, {"measurement": "relative viability", "setting": "[5]; first compound 1.265 µM", "result": 0.543}, {"measurement": "relative viability", "setting": "[5]; first compound 4 µM", "result": 0.474}, {"measurement": "relative viability", "setting": "[6]; first compound 0.04 µM", "result": 0.187}, {"measurement": "relative viability", "setting": "[6]; first compound 0.1265 µM", "result": 0.149}, {"measurement": "relative viability", "setting": "[6]; first compound 0.4 µM", "result": 0.189}, {"measurement": "relative viability", "setting": "[6]; first compound 1.265 µM", "result": 0.102}, {"measurement": "relative viability", "setting": "[6]; first compound 4 µM", "result": 0.102}, {"measurement": "relative viability", "setting": "[7]; first compound 0.04 µM", "result": 0.71}, {"measurement": "relative viability", "setting": "[7]; first compound 0.1265 µM", "result": 0.579}, {"measurement": "relative viability", "setting": "[7]; first compound 0.4 µM", "result": 0.217}, {"measurement": "relative viability", "setting": "[7]; first compound 1.265 µM", "result": 0.163}, {"measurement": "relative viability", "setting": "[7]; first compound 4 µM", "result": 0.218}, {"measurement": "relative viability", "setting": "[8]; first compound 0.04 µM", "result": 0.432}, {"measurement": "relative viability", "setting": "[8]; first compound 0.1265 µM", "result": 0.429}, {"measurement": "relative viability", "setting": "[8]; first compound 0.4 µM", "result": 0.34}, {"measurement": "relative viability", "setting": "[8]; first compound 1.265 µM", "result": 0.277}, {"measurement": "relative viability", "setting": "[8]; first compound 4 µM", "result": 0.255}, {"measurement": "relative viability", "setting": "[9]; first compound 0.04 µM", "result": 0.477}, {"measurement": "relative viability", "setting": "[9]; first compound 0.1265 µM", "result": 0.425}, {"measurement": "relative viability", "setting": "[9]; first compound 0.4 µM", "result": 0.43}, {"measurement": "relative viability", "setting": "[9]; first compound 1.265 µM", "result": 0.18}, {"measurement": "relative viability", "setting": "[9]; first compound 4 µM", "result": 0.145}, {"measurement": "relative viability", "setting": "[10]; first compound 0.04 µM", "result": 0.685}, {"measurement": "relative viability", "setting": "[10]; first compound 0.1265 µM", "result": 0.688}, {"measurement": "relative viability", "setting": "[10]; first compound 0.4 µM", "result": 0.644}, {"measurement": "relative viability", "setting": "[10]; first compound 1.265 µM", "result": 0.462}, {"measurement": "relative viability", "setting": "[10]; first compound 4 µM", "result": 0.491}, {"measurement": "relative viability", "setting": "[11]; first compound 0.04 µM", "result": 0.796}, {"measurement": "relative viability", "setting": "[11]; first compound 0.1265 µM", "result": 0.809}, {"measurement": "relative viability", "setting": "[11]; first compound 0.4 µM", "result": 0.8}, {"measurement": "relative viability", "setting": "[11]; first compound 1.265 µM", "result": 0.674}, {"measurement": "relative viability", "setting": "[11]; first compound 4 µM", "result": 0.65}, {"measurement": "relative viability", "setting": "[12]; first compound 0.04 µM", "result": 0.342}, {"measurement": "relative viability", "setting": "[12]; first compound 0.1265 µM", "result": 0.27}, {"measurement": "relative viability", "setting": "[12]; first compound 0.4 µM", "result": 0.244}, {"measurement": "relative viability", "setting": "[12]; first compound 1.265 µM", "result": 0.217}, {"measurement": "relative viability", "setting": "[12]; first compound 4 µM", "result": 0.198}, {"measurement": "relative viability", "setting": "[13]; first compound 0.04 µM", "result": 0.483}, {"measurement": "relative viability", "setting": "[13]; first compound 0.1265 µM", "result": 0.396}, {"measurement": "relative viability", "setting": "[13]; first compound 0.4 µM", "result": 0.424}, {"measurement": "relative viability", "setting": "[13]; first compound 1.265 µM", "result": 0.276}, {"measurement": "relative viability", "setting": "[13]; first compound 4 µM", "result": 0.181}, {"measurement": "relative viability", "setting": "[14]; first compound 0.04 µM", "result": 0.782}, {"measurement": "relative viability", "setting": "[14]; first compound 0.1265 µM", "result": 0.8}, {"measurement": "relative viability", "setting": "[14]; first compound 0.4 µM", "result": 0.905}, {"measurement": "relative viability", "setting": "[14]; first compound 1.265 µM", "result": 0.803}, {"measurement": "relative viability", "setting": "[14]; first compound 4 µM", "result": 0.672}, {"measurement": "relative viability", "setting": "[15]; first compound 0.04 µM", "result": 0.627}, {"measurement": "relative viability", "setting": "[15]; first compound 0.4 µM", "result": 0.601}, {"measurement": "relative viability", "setting": "[15]; first compound 1.265 µM", "result": 0.422}, {"measurement": "relative viability", "setting": "[15]; first compound 4 µM", "result": 0.332}, {"measurement": "relative viability", "setting": "[16]; first compound 0.04 µM", "result": 0.555}, {"measurement": "relative viability", "setting": "[16]; first compound 0.1265 µM", "result": 0.644}, {"measurement": "relative viability", "setting": "[16]; first compound 0.4 µM", "result": 0.45}, {"measurement": "relative viability", "setting": "[16]; first compound 1.265 µM", "result": 0.334}, {"measurement": "relative viability", "setting": "[16]; first compound 4 µM", "result": 0.539}, {"measurement": "relative viability", "setting": "[17]; first compound 0.04 µM", "result": 0.565}, {"measurement": "relative viability", "setting": "[17]; first compound 0.1265 µM", "result": 0.66}, {"measurement": "relative viability", "setting": "[17]; first compound 0.4 µM", "result": 0.386}, {"measurement": "relative viability", "setting": "[17]; first compound 1.265 µM", "result": 0.391}, {"measurement": "relative viability", "setting": "[17]; first compound 4 µM", "result": 0.239}, {"measurement": "relative viability", "setting": "[18]; first compound 0.04 µM", "result": 0.554}, {"measurement": "relative viability", "setting": "[18]; first compound 0.1265 µM", "result": 0.451}, {"measurement": "relative viability", "setting": "[18]; first compound 0.4 µM", "result": 0.508}, {"measurement": "relative viability", "setting": "[18]; first compound 1.265 µM", "result": 0.46}, {"measurement": "relative viability", "setting": "[18]; first compound 4 µM", "result": 0.441}, {"measurement": "relative viability", "setting": "[19]; first compound 0.04 µM", "result": 0.862}, {"measurement": "relative viability", "setting": "[19]; first compound 0.1265 µM", "result": 0.174}, {"measurement": "relative viability", "setting": "[19]; first compound 0.4 µM", "result": 0.515}, {"measurement": "relative viability", "setting": "[19]; first compound 1.265 µM", "result": 0.26}, {"measurement": "relative viability", "setting": "[19]; first compound 4 µM", "result": 0.182}, {"measurement": "relative viability", "setting": "[20]; first compound 0.04 µM", "result": 0.683}, {"measurement": "relative viability", "setting": "[20]; first compound 0.1265 µM", "result": 0.609}, {"measurement": "relative viability", "setting": "[20]; first compound 0.4 µM", "result": 0.49}, {"measurement": "relative viability", "setting": "[20]; first compound 1.265 µM", "result": 0.475}, {"measurement": "relative viability", "setting": "[20]; first compound 4 µM", "result": 0.461}, {"measurement": "relative viability", "setting": "[21]; first compound 0.04 µM", "result": 0.907}, {"measurement": "relative viability", "setting": "[21]; first compound 0.1265 µM", "result": 0.803}, {"measurement": "relative viability", "setting": "[21]; first compound 0.4 µM", "result": 0.817}, {"measurement": "relative viability", "setting": "[21]; first compound 1.265 µM", "result": 0.532}, {"measurement": "relative viability", "setting": "[21]; first compound 4 µM", "result": 0.449}]}
